Laboratory results from patent US10813930B2, “Substituted imidazopyridazines and benzimidazoles as inhibitors of FGFR3” (Incyte Corporation, priority 2010, dated 2020).

These compounds were tested against FGFR3 enzyme (Millipore) (Homo sapiens (Human), UniProt P22607) (assay: FGFR3 Enzymatic Assay (peptide phosphorylation, FRET/HTRF)). Details: 140 μM ATP, 25° C. 1 hr.
Format: biochemical
Protocol: FGFR3 Enzymatic Assay The inhibitor potency of compounds of the invention was measured in an enzyme assay that measures peptide phosphorylation using FRET measurements to detect product formation. Inhibitors were serially diluted in DMSO and a volume of 0.5 μL was transferred to the wells of a 384-well plate. A 10 μL volume of FGFR3 enzyme (Millipore) diluted in assay buffer (50 mM HEPES, 10 mM MgCl2, 1 mM EGTA, 0.01% Tween-20, 5 mM DTT, pH 7.5) was added to the plate and pre-incubated for 5-10 minutes. Appropriate controls (enzyme blank and enzyme with no inhibitor) were included on the plate. […] The plate was incubated at 25° C. for 1 hr. […] The plate was allowed to equilibrate for ˜1 hr before scanning the wells on a PheraStar plate reader.
GraphPad prism3 was used to analyze the data. The IC50 values were derived by fitting the data to the equation for a sigmoidal dose-response with a variable slope. Y=Bottom+(Top-Bottom)/(1+10^(Log IC50−X)*HillSlope)) where X is the logarithm of concentration and Y is the response.

Chain of FGFR3 enzyme (Millipore) (P22607 23-806): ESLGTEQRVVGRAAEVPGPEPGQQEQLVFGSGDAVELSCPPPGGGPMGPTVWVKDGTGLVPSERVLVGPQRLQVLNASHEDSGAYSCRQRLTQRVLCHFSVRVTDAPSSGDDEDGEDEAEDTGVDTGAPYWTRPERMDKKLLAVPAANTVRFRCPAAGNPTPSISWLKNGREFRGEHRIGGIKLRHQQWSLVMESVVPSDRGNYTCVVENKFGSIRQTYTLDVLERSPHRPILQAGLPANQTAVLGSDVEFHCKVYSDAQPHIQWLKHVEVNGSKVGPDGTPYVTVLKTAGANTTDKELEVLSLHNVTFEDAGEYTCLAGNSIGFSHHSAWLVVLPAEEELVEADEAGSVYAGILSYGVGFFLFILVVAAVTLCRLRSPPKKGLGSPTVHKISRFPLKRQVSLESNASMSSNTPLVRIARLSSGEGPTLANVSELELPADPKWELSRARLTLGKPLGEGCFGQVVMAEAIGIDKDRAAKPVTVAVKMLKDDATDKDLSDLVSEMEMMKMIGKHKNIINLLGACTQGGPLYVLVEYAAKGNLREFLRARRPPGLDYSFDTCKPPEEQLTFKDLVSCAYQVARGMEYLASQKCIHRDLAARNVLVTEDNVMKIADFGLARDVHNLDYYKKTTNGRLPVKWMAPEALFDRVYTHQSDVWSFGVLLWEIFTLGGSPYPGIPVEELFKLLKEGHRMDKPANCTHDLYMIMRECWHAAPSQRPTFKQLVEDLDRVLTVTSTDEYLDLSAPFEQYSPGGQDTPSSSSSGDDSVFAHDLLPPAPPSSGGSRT

IC50 [nM] | Compound
< 10 | N#CCC1(n2cc(-c3cnn4c(-c5cccc(NC(=O)NCC(F)(F)F)c5)cnc4c3)cn2)CN(C(=O)C2(C#N)CC2)C1 [Example 80, N-[3-(7-{1-[1-[(1-Cyanocyclopropyl)carbonyl]-3-(cyanomethyl)azetidin-3-yl]-1H-pyrazol-4-yl}imidazo[1,2-b]pyridazin-3-yl)phenyl]-N′-(2,2,2-trifluoroethyl)urea]
< 10 | N#CCC1(n2cc(-c3cnn4c(-c5cccc(NC(=O)NCC(F)(F)F)c5)cnc4c3)cn2)CN(C(=O)C2CCOC2)C1 (stereo not shown) [Example 82, N-[3-(7-{1-[3-(Cyanomethyl)-1-(tetrahydrofuran-3-ylcarbonyl)azetidin-3-yl]-1H-pyrazol-4-yl}imidazo[1,2-b]pyridazin-3-yl)phenyl]-N′-(2,2,2-trifluoroethyl)urea]
< 10 | N#CCC1(n2cc(-c3cnn4c(-c5cccc(NC(=O)NCC(F)(F)F)c5)cnc4c3)cn2)CN(C(=O)CC2CC2)C1 [Example 78, N-[3-(7-{1-[3-(Cyanomethyl)-1-(cyclopropylacetyl)azetidin-3-yl]-1H-pyrazol-4-yl}imidazo[1,2-b]pyridazin-3-yl)phenyl]-N′-(2,2,2-trifluoroethyl)urea]
< 10 | N#CCC1(n2cc(-c3cnn4c(-c5cccc(NC(=O)NCC(F)(F)F)c5)cnc4c3)cn2)CN(C(=O)NCC2CC2)C1 [Example 87, 3-(Cyanomethyl)-N-(cyclopropylmethyl)-3-(4-{3-[3-({[(2,2,2-trifluoroethyl)amino]carbonyl}amino)phenyl]imidazo[1,2-b]pyridazin-7-yl}-1H-pyrazol-1-yl)azetidine-1-carboxamide]
< 10 | N#CCC1(n2cc(-c3cnn4c(-c5cccc(NC(=O)NCC(F)(F)F)c5)cnc4c3)cn2)CN(C(=O)OCC2CC2)C1 [Example 88, Cyclopropylmethyl 3-(cyanomethyl)-3-(4-{3-[3-({[(2,2,2-trifluoroethyl)amino]carbonyl}amino)phenyl]imidazo[1,2-b]pyridazin-7-yl}-1H-pyrazol-1-yl)azetidine-1-carboxylate]
< 10 | CC(C(=O)N1CC(O)C1)n1cc(-c2cnn3c(-c4cccc(NC(=O)NCC(F)(F)F)c4)cnc3c2)cn1 (stereo not shown) [Example 64, N-[3-(7-{1-[2-(3-Hydroxyazetidin-1-yl)-1-methyl-2-oxoethyl]-1H-pyrazol-4-yl}imidazo[1,2-b]pyridazin-3-yl)phenyl]-N′-(2,2,2-trifluoroethyl)urea]
< 10 | CC(C(=O)N1CCC(F)(F)C1)n1cc(-c2cnn3c(-c4cccc(NC(=O)NCC(F)(F)F)c4)cnc3c2)cn1 (stereo not shown) [Example 65, N-[3-(7-{1-[2-(3,3-Difluoropyrrolidin-1-yl)-1-methyl-2-oxoethyl]-1H-pyrazol-4-yl}imidazo[1,2-b]pyridazin-3-yl)phenyl]-N′-(2,2,2-trifluoroethyl)urea]
< 10 | N#CCC1(n2cc(-c3cnn4c(-c5cccc(NC(=O)NCC(F)(F)F)c5)cnc4c3)cn2)CN(C(=O)N2CCOCC2)C1 [Example 85, N-[3-(7-{1-[3-(Cyanomethyl)-1-(morpholin-4-ylcarbonyl)azetidin-3-yl]-1H-pyrazol-4-yl}imidazo[1,2-b]pyridazin-3-yl)phenyl]-N′-(2,2,2-trifluoroethyl)urea]
< 10 | CC(O)CNC(=O)C(C)n1cc(-c2cnn3c(-c4cccc(NC(=O)NCC(F)(F)F)c4)cnc3c2)cn1 (stereo not shown) [Example 63, N-(2-Hydroxypropyl)-2-(4-{3-[3-({[(2,2,2-trifluoroethyl)amino]carbonyl}amino)phenyl]imidazo[1,2-b]pyridazin-7-yl}-1H-pyrazol-1-yl)propanamide]
< 10 | N#CCC(=O)N1CC(CC#N)(n2cc(-c3cnn4c(-c5cccc(NC(=O)NCC(F)(F)F)c5)cnc4c3)cn2)C1 [Example 77, N-[3-(7-{1-[1-(Cyanoacetyl)-3-(cyanomethyl)azetidin-3-yl]-1H-pyrazol-4-yl}imidazo[1,2-b]pyridazin-3-yl)phenyl]-N′-(2,2,2-trifluoroethyl)urea]
< 10 | N#CCC1(n2cc(-c3cnn4c(-c5cccc(NC(=O)NCC(F)(F)F)c5)cnc4c3)cn2)CN(C(=O)CC2CCCO2)C1 (stereo not shown) [Example 81, N-[3-(7-{1-[3-(Cyanomethyl)-1-(tetrahydrofuran-2-ylacetyl)azetidin-3-yl]-1H-pyrazol-4-yl}imidazo[1,2-b]pyridazin-3-yl)phenyl]-N′-(2,2,2-trifluoroethyl)urea]
< 10 | CC1(C(=O)N2CC(CC#N)(n3cc(-c4cnn5c(-c6cccc(NC(=O)NCC(F)(F)F)c6)cnc5c4)cn3)C2)CC1 [Example 79, N-{3-[7-(1-{3-(Cyanomethyl)-1-[(1-methylcyclopropyl)carbonyl]azetidin-3-yl}-1H-pyrazol-4-yl)imidazo[1,2-b]pyridazin-3-yl]phenyl}-N′-(2,2,2-trifluoroethyl)urea]
< 10 | N#CCC1(n2cc(-c3cnn4c(-c5cccc(NC(=O)NCC(F)(F)F)c5)cnc4c3)cn2)CN(C(=O)N2CCCC2)C1 [Example 86, N-[3-(7-{1-[3-(Cyanomethyl)-1-(pyrrolidin-1-ylcarbonyl)azetidin-3-yl]-1H-pyrazol-4-yl}imidazo[1,2-b]pyridazin-3-yl)phenyl]-N′-(2,2,2-trifluoroethyl)u rea]
